ChEMBL document CHEMBL1129670, “Synthesis and structure-activity relationships of N-propyl-N-(4-pyridinyl)-1H-indol-1-amine (besipirdine) and related analogs as potential therapeutic agents for Alzheimer's disease” (J Med Chem, 1996)

Columns and labels:
Mus musculus [1] = species: Mus musculus; experiment: animal or person
Description: Effective dose against administration in mice

[2] = target: Sodium-dependent noradrenaline transporter (Homo sapiens, UniProt P23975)
Description: Inhibitory activity against norepinephrine (NE) uptake in rat whole brain synaptosome preparation

Acetylcholinesterase = target: T1, Acetylcholinesterase (Rattus norvegicus, UniProt P37136)
T1 sequence (P37136 whole entry): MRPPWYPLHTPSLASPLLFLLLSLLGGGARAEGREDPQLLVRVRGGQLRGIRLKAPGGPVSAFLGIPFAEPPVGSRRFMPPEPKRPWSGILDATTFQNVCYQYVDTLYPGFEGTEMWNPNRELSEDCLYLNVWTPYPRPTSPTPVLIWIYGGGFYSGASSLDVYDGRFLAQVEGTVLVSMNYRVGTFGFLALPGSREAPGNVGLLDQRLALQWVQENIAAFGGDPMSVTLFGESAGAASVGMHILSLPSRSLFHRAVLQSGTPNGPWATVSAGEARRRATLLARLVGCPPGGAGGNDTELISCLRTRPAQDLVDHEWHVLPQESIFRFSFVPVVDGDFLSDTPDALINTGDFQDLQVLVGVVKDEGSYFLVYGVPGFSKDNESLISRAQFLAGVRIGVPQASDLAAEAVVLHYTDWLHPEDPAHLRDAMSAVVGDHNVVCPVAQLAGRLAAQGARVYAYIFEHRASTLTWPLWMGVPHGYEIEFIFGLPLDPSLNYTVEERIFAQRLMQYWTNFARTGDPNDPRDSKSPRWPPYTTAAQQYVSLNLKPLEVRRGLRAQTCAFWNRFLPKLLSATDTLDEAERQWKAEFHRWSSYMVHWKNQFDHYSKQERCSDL
Description: Inhibitory activity against acetylcholinesterase in rat striatal preparation

[3] = target: Muscarinic acetylcholine receptor; format: cell membranes, Membrane
Description: Inhibition of [3H]quinuclidinyl benzilate (QNB) binding from rat forebrain membranes in the presence of Zn

[4] = target: Muscarinic acetylcholine receptor; format: cell membranes, Membrane; remark: listed apart in the source
Description: Inhibition of [3H]quinuclidinyl benzilate (QNB) binding from rat forebrain membranes in the absence of Zn

[5] = target: T2, Adrenergic receptor alpha-2 (Rattus norvegicus, UniProt P22086+P19328+P22909); experiment: Inhibitory activity against [3H]clonidine binding to Alpha-2 adrenergic receptor in rat cortex
T2 sequence (P22086 whole entry): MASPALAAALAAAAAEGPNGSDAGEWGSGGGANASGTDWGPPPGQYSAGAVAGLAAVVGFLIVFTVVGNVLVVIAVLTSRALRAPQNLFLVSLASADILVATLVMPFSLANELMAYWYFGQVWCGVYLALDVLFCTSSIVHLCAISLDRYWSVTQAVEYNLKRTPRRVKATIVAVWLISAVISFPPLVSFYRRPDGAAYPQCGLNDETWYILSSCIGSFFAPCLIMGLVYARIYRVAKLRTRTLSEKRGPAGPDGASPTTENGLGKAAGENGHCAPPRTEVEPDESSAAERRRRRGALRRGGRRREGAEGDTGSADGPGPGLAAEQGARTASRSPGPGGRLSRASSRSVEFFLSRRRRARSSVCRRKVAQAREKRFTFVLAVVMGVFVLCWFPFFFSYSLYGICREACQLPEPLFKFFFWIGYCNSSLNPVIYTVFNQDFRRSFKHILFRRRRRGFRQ
T2 sequence (P19328 whole entry): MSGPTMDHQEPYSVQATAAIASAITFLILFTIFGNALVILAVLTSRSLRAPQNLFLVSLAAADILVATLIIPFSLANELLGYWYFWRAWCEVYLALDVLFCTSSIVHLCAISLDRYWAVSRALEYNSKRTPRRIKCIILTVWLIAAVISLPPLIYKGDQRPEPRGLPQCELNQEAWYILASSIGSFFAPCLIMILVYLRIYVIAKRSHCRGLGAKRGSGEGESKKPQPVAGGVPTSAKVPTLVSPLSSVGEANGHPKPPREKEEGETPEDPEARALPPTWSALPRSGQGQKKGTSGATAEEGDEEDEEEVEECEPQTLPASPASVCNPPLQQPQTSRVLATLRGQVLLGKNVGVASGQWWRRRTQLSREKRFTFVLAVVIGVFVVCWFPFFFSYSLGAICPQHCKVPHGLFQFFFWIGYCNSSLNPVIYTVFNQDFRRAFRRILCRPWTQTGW
T2 sequence (P22909 whole entry): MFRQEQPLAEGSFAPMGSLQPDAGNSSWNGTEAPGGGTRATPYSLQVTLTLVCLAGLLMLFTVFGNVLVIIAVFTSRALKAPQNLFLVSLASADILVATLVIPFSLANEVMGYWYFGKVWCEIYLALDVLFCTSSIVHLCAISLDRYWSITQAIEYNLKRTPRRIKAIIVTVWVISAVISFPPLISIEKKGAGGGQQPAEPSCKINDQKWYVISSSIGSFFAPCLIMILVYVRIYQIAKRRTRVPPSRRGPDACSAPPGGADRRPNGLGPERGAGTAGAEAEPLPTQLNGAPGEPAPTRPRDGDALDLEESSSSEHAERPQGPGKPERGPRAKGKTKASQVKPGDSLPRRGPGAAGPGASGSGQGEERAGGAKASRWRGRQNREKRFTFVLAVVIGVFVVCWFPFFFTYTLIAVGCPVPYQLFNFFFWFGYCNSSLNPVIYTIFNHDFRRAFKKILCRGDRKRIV

Mus musculus [6] = species: Mus musculus; conditions: dose 0.63 mg/kg; route subcutaneous
Description: Antagonistic activity against Scopolamine induced behavioral deficits in mice at dose 0.63 mg/kg sc

[7] = target: T3, Adrenergic receptor alpha-1 (Rattus norvegicus, UniProt P15823+P23944+P43140); experiment: Inhibitory activity against [3H]WB-4101 binding to Alpha-1 adrenergic receptor in rat whole brain membrane; format: cell membranes
T3 sequence (P15823 whole entry): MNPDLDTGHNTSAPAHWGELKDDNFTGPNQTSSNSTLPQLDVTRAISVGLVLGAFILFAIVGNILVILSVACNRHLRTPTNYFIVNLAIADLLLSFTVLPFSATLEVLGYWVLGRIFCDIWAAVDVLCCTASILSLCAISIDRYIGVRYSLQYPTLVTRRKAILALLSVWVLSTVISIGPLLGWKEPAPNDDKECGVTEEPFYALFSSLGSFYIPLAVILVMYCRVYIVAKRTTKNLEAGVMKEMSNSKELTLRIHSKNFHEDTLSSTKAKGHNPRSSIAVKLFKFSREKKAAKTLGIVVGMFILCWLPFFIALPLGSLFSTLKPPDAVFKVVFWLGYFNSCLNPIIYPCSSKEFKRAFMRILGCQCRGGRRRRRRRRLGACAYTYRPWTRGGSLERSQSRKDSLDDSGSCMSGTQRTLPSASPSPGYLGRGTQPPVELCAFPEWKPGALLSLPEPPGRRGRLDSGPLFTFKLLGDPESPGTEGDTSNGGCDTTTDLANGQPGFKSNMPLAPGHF
T3 sequence (P23944 whole entry): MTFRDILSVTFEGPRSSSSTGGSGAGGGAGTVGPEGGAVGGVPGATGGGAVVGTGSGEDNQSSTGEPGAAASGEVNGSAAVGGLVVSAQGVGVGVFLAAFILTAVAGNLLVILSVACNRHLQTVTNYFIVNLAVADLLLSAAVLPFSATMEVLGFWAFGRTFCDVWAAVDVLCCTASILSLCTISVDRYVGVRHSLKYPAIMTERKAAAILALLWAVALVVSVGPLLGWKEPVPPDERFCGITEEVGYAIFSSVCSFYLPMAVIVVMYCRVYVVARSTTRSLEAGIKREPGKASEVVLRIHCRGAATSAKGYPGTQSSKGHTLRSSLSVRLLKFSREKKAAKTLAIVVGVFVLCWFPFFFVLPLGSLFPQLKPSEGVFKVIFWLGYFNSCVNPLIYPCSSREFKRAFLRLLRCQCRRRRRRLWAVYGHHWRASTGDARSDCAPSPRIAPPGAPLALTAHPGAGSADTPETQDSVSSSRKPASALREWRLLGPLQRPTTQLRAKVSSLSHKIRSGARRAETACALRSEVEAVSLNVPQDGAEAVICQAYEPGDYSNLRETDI
T3 sequence (P43140 whole entry): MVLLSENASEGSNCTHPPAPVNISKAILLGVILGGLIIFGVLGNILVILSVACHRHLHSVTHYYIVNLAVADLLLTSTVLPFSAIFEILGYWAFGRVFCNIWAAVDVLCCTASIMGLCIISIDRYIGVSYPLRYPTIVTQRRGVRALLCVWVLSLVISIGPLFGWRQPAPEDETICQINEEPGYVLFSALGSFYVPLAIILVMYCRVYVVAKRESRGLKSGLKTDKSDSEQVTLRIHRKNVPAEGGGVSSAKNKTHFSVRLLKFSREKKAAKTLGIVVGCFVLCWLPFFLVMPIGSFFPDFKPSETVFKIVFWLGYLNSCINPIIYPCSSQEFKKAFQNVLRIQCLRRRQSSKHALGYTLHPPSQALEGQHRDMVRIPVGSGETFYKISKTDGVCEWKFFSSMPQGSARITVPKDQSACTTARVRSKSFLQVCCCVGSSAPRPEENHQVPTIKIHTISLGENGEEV

Mus musculus [8] = species: Mus musculus; experiment: Antagonistic activity against Scopolamine induced behavioral deficits in mice; 1/6; format: functional
Mus musculus [9] = species: Mus musculus; conditions: dose 5 mg/kg; route subcutaneous
Mus musculus [10] = species: Mus musculus; experiment: Antagonistic activity against Scopolamine induced behavioral deficits in mice; 3/9; format: functional
Mus musculus [11] = experiment: Antagonistic activity against Scopolamine induced behavioral deficits in mice at dose 0.02 mg/kg sc; format: functional; conditions: route subcutaneous
Mus musculus [12] = species: Mus musculus; conditions: dose 2.5 mg/kg; route subcutaneous
Description: Antagonistic activity against Scopolamine induced behavioral deficits in mice at dose 2.5 mg/kg sc

Mus musculus [13] = species: Mus musculus
Mus musculus [14] = experiment: Antagonistic activity against Scopolamine induced behavioral deficits in mice at dose 1.25 mg/kg sc; format: functional; conditions: route subcutaneous
Mus musculus [15] = experiment: Antagonistic activity against Scopolamine induced behavioral deficits in mice at dose 5.0 mg/kg sc; format: functional; conditions: route subcutaneous
Mus musculus [16] = experiment: Antagonistic activity against Scopolamine induced behavioral deficits in mice at dose […] sc; format: functional; conditions: route subcutaneous

Sodium-dependent noradrenaline transporter, sequence (P23975 whole entry): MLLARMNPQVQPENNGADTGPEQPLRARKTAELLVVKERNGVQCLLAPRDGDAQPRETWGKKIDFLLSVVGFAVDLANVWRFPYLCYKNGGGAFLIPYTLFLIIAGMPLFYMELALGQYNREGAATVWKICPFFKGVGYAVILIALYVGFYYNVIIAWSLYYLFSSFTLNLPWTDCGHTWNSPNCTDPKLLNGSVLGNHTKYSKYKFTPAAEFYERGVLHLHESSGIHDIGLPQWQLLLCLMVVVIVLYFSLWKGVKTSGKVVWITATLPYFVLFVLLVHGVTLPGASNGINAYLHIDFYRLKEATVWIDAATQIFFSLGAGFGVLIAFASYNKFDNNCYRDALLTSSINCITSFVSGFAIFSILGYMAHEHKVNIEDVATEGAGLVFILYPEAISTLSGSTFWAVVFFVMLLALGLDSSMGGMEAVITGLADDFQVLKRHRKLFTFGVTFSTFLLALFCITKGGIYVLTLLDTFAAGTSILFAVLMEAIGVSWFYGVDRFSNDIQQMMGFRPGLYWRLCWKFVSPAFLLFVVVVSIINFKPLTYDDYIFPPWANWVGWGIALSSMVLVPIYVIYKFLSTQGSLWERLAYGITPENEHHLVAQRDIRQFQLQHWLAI

| SMILES | ED50 (Mus musculus [1]) [mg/kg] | IC50 [2] [µM] | IC50 (Acetylcholinesterase) [µM] | IC50 [3] [µM] | IC50 [4] [µM] | further results |
| --- | --- | --- | --- | --- | --- | --- |
| Brc1ccc2c(ccn2Nc2ccncc2)c1 | > 20 | > 20 | > 100 | 7.5 | 44 | – |
| O=C(O)/C=C/C(=O)O.c1cnn(Nc2ccncc2)c1 | > 20 | > 20 | > 100 | 247 | > 1000 | – |
| CCN(c1ccncc1)n1ccc2ccccc21 | 3.3 | 0.25 | > 100 | 2.4 | 10 | IC50 [5]: 0.11 µM; Response (Mus musculus [6]): 33%; IC50 [7]: 3.3 µM; Antagonism (Mus musculus [8]): 1 |
| CCCN(c1ccncc1)n1c(C)cc2ccccc21 | 3.2 | 1.1 | > 100 | 1.4 | 7.2 | IC50 [5]: 2.3 µM; Response (Mus musculus [9]): 23%; Antagonism (Mus musculus [10]): 3; Response (Mus musculus [11]): 20%; Response (Mus musculus [12]): 20% |
| O=C(O)/C=C/C(=O)O.c1ccc2c(c1)cnn2Nc1ccncc1 | 3.8 | 17 | > 100 | 29 | 128 | Antagonism (Mus musculus [13]): 0 |
| CCCN(c1ccncc1)n1ccc2cc(Cl)ccc21 | > 20 | 1.9 | > 100 | 2.4 | 5.8 | Response (Mus musculus [14]): 20%; Antagonism (Mus musculus [8]): 1 |
| CCCN(c1ccncc1)n1cc(C=O)c2ccccc21 | 18 | 2.2 | 20 | 1.8 | 3.3 | Antagonism (Mus musculus [13]): 0 |
| CCCN(c1ccncc1)n1cccn1.O=C(O)/C=C/C(=O)O | > 20 | > 20 | > 100 | 31 | 127 | – |
| CCCN(c1ccncn1)n1ccc2ccccc21 | > 20 | 1.4 | > 100 | 11 | 391 | Response (Mus musculus [15]): 23%; Antagonism (Mus musculus [8]): 1 |
| CCCN(c1ccncc1)n1cc2ccccc2n1 | > 20 | 4.7 | > 100 | 15 | 91 | – |
| O=C(O)/C=C/C(=O)O.c1ccc2c(c1)c1ccccc1n2Nc1ccncc1 | 2.3 | 1.4 | > 100 | 8.2 | 20 | Antagonism (Mus musculus [13]): 0 |
| C=CCN(c1ccncc1)n1ccc2ccccc21 | 4.2 | 6.2 | > 100 | 1 | 7.3 | Antagonism (Mus musculus [13]): 0 |
| c1ccc2nn(Nc3ccncc3)cc2c1 | > 20 | > 20 | > 100 | 128 | 409 | – |
| COc1ccc2c(ccn2Nc2ccncc2)c1 | > 20 | > 20 | > 100 | 7.5 | 44 | – |
| Cc1cn(Nc2ccncc2)c2ccccc12 | 1 | 12.8 | > 100 | 35 | 82 | Antagonism (Mus musculus [8]): 1; Response (Mus musculus [16]): 33% |
| O=[N+]([O-])c1ccc2c(ccn2Nc2ccncc2)c1 | > 20 | 9.9 | > 100 | 12 | 146 | – |
| Clc1cccc(Cl)c1NC1=NCCN1 [CLONIDINE] | 0.36 | > 20 | – | – | – | Antagonism (Mus musculus [13]): 0 |
| O=C1CCCN1CC#CCN1CCCC1 [OXOTREMORINE] | – | – | – | 0.66 | 2.7 | – |
| COC(=O)[C@@H]1[C@H]2C[C@H]3c4[nH]c5ccccc5c4CCN3C[C@@H]2CC[C@@H]1O [YOHIMBINE] | > 8 | – | – | – | – | – |
